melting point	SMILES
241 to 242 °C	Cc1ccc(NS(=O)(=O)c2cccs2)c2[nH]c(C(=O)NCCSC(c3ccccc3)(c3ccccc3)c3ccccc3)cc12
123 to 124 °C	COc1cc(C=CC(C)=O)ccc1OCC1CO1 (stereo unspecified)
312 to 314 °C	CCC(CC)NC(=O)CCCOc1ccc2nc3[nH]c(=O)[nH]c3cc2c1
129 to 131 °C	Cc1ccccc1-c1ccc(C(=O)N2Cc3ccc(C(=O)NCCCCc4ccccc4)n3Cc3ccccc32)cc1C
115 °C	CCCN(c1nc(-c2ccc(OC)cc2Cl)c(C)s1)c1cc(CO)ccc1OC
156 to 159 °C	O=C1OCCN1CCCC(c1cc(F)ccc1F)S(=O)(=O)c1ccc(Cl)cc1 (stereo unspecified)
109 to 111 °C	CCC1c2cc(F)ccc2-c2ccccc2N1C(=O)c1ccc(O)cc1F (stereo unspecified)
99 to 100 °C	c1ccc(Cn2cnc3cncnc32)cc1
98 to 100 °C	COC(=O)C=Cc1ccc(-c2ccc(OC(F)(F)F)cc2)cc1
255 to 256 °C	N#CCC1NC(=O)C(Cc2ccccc2)NC1=O (stereo unspecified)
130 to 131 °C	CC(=O)NC(C)(C)Cc1ccc2c(c1)CCC2
145 to 146 °C	CC(C)Oc1ccc2ccc(C(N)=O)c(OC(C)C)c2c1
229 to 231 °C	N#Cc1ccc2c(c1)S(=O)(=O)c1ccccc1C=C2
105 to 107 °C	CCOC(=O)CNS(=O)(=O)c1ccc(N2CCC(NC[C@H](O)c3ccc(O)c(NS(C)(=O)=O)c3)CC2)cc1
> 300 °C	CC(C)(C)OC(=O)c1ccc(C(=O)NS(=O)(=O)c2ccc(Cl)cc2)cc1
250 °C	Cc1cc2cc(CN3CCC(C(=O)N4CCCCC4)CC3)cnc2cc1NC(=O)c1ccc(-c2ccc(F)cc2)cc1
178 to 180 °C	COc1cc(C)c([N+](=O)[O-])cc1C(=O)NCC1CCCO1 (stereo unspecified)
143 to 144 °C	COC(=O)c1ccc(Oc2ccc(N3CCN(c4ccncc4)CC3)cc2)nc1
> 300 °C	O=C(Nn1c(=O)c(=O)[nH]c2ccc3ccccc3c21)c1ccccc1
236 to 240 °C	C#CCC1(c2ccccc2)Cc2cc(OCC(=O)O)c(Cl)c(Cl)c2C1=O (stereo unspecified)
179 to 180 °C	CC(C)c1cn2ccccc2c1S(=O)(=O)c1ccc(O)cc1
178 to 180 °C	CC1(C)C(=O)N(c2ccc(C#N)c(C(F)(F)F)c2)C(=O)N1CC1CC1CN1C(=O)N(c2ccc(C#N)c(C(F)(F)F)c2)C(=O)C1(C)C (stereo unspecified)
186 °C	CC(C)(C)c1ccc(C(=O)N[C@H]2CC[C@H](CCN3CCN(c4nccc5c4CCO5)CC3)CC2)cc1
78 °C	CCC(O)c1ccc(-c2cccc(COc3ccc(CO)c(CO)c3)c2)c(C)c1 (stereo unspecified)

melting point	SMILES
> 280 °C	Cc1nnc2c(Cl)nc3ccc(Cl)cc3n12
206 °C	COC(=O)[C@H](O)[C@@H](N)c1ccc(C(N)=O)cc1
76 to 78 °C	CCC(=O)N(C)c1ccc(C(=O)C=CN(C)C)cc1
196 to 200 °C	Cn1ncnc1COc1nn2c(-c3ccccc3F)nncc2c1-c1cccc(N)c1
82 to 84 °C	O=C(OC(c1ccccc1)c1ccccc1)[C@H](O)CCc1ccccc1
104 to 106 °C	COc1ccc(C(=O)CCCCCN2CCC(CNC(=O)c3cc(Cl)c(N)cc3OC)CC2)cc1Cl
167 to 168 °C	COCc1cn2c(C)c(C)nc2c(O)c1CCC(=O)c1ccccc1
262 °C	CC(C)c1ccc2nc(C(F)(F)F)c(C(=O)Nc3nccs3)c(O)c2c1
170 to 172 °C	N#CCN1C(=O)C2(COc3cc4c(cc32)OCO4)c2ccccc21 (stereo unspecified)
100 °C	CCCCC[C@H]1CC[C@H](c2cnc(-c3ccc(C#N)cc3)nc2)CC1
126 to 127 °C	CCOC(=O)C(=CNc1nccs1)C(=O)c1c(Cl)cc(Cl)nc1Cl
> 300 °C	Cc1[nH]c(=O)c(C#N)cc1-c1ccncc1
147 to 148 °C	O=S1(=O)N=CN(C2CC2)c2c1ccc(F)c2Cl
122 to 124 °C	CC(C)c1cccc(F)c1NC(=S)NN
236 to 237 °C	Cc1cccc(C(=O)NC(Nc2c(Nc3cccnc3)c(=O)c2=O)C(C)(C)C)c1 (stereo unspecified)
120 to 122 °C	CCCCC(C)(CC)C(O)C(Oc1ccc(-c2ccccc2)cc1)n1cncn1 (stereo unspecified)
202 °C	O=C(NC(=O)c1c(Cl)cccc1Cl)Nc1ccc(OC(F)(F)F)cc1
228 °C	Cc1ccc(-c2ccc(OC3SCC(O)C(O)C3O)cn2)cn1 (stereo unspecified)
121 °C	CCCNc1ccc(Cl)cc1Cl
191 to 194 °C	Nc1cc(-c2ccco2)ccc1Nc1cccc(-n2ccnc2)c1
98 °C	O=C1C=C2CCCCC2N1c1ccc(OCCN2CCCCC2)c(Cl)c1 (stereo unspecified)
78 to 95 °C	OCCNCCNCc1ccc(-c2cc3ncnc(Nc4ccc5[nH]ccc5c4)c3s2)cc1
115 to 116 °C	CCCCCC(C#Cc1ccc(C(=O)O)cc1)c1ccc2c(c1)C(C)(C)CCC2(C)C (racemic)
150 to 152 °C	CC(C)(C)SN1C(=O)NC(=O)C1=O

melting point	SMILES
178 to 180 °C	Cc1nnc2c(-c3ccccc3)nccn12
171 to 172 °C	OC1(NC2=NCCS2)C(=Cc2ccccc2)CSCC1=Cc1ccccc1 (stereo unspecified)
114 °C	C#CCn1cc(C#N)c(C=O)c1
67 to 70 °C	CCCCc1oc2ccccc2c1Cc1ccc(O)cc1
158 to 160 °C	Fc1ccc(-c2nc3ccc(OC(F)(F)F)cc3[nH]2)cc1
142 to 144 °C	CC#COc1ccc2c(=O)c3ccccc3oc2c1
205 to 213 °C	COc1cc(OCc2ccccn2)ccc1/C=C/c1cc(/C=C/c2ccc3nccnc3c2)[nH]n1
141 °C	COC(=O)CN(C)c1cc(-c2ccc(Cl)cc2)on1
189 to 191 °C	CCOC(=O)c1cn(C2CC2)c2cc(F)c(F)cc2c1=O
59.5 to 60 °C	CCN(CC)c1nn2ccccc2c1C(C)=O
70 to 71 °C	CCC(CC)O[C@@H]1C=C(C(=O)O)C[C@H](CC=O)[C@H]1NC(C)=O
129 to 130 °C	CCN(CC)C(=O)c1cc(-c2ccc(OC)cc2)c2ccccc2c1OC
172 °C	Cc1nc2ccc(NC(=O)CC34CC5CC(CC(C5)C3)C4)cc2s1
43 to 45 °C	O=C1C(c2cccc(Br)c2)n2cncc2CN1Cc1ccsc1 (stereo unspecified)
172 to 174 °C	NS(=O)(=O)Nc1ccc(CCN2CCC(COC(c3ccccc3)c3ccccc3)CC2)cc1
181 to 183 °C	Brc1cn(C(c2ccccc2)(c2ccccc2)c2ccccc2)nc1-c1ccccc1
146 to 147 °C	CCO/C(=N/O)C1Cc2cc(C(=O)CC)c(O)c(Cl)c2O1 (stereo unspecified)
188 to 190 °C	COc1ccc(S(=O)(=O)NCc2ccc(-n3c(-c4cccnc4N)nc4cc(Br)cnc43)cc2)cc1
137 °C	CCCCN1C=CC(N2CCC(F)(c3ccccc3)C(Cl)C2=O)=CC1 (stereo unspecified)
218 to 220 °C	CCCCc1nc2c(N)nc3ccccc3c2n1CC1(O)CCCCC1
174 to 179 °C	C[C@H](NC(=O)CCC1CCC(=O)N1)C(=O)O (stereo partly specified)
177 °C	Clc1nccc(N2CCC3(CC2)COc2ccccc23)c1Cl
186 to 187 °C	CCOC(=O)/C=C/c1ccc(C=Cc2nc(-c3ccc4ccccc4c3)oc2C)cc1
240 to 242 °C	O=C(O)Cn1c(-c2cccc(C(F)(F)F)c2)nc2cccnc21

melting point	SMILES
172 to 174 °C	CCOC(=O)c1ccc(NC(=O)c2ccc(F)cc2)cc1
56 to 58 °C	Cn1nc(C(F)(F)F)cc1Oc1cccc(Cl)n1
84 to 86 °C	COc1ccc2[nH]nc(N3CCN(C[C@@H](O)COc4cccc(-c5noc6ccsc56)c4)CC3)c2c1
62 to 63 °C	CCOC(=O)CCCOc1ccc2c(c1)C(=O)CCC2
241 to 242 °C	O=C(O)c1ccccc1Sc1cc(Cl)ccc1C(=O)O
78 to 79 °C	CC(CCCC(=O)O)NC(=O)C(C)S (stereo unspecified)
188 °C	Nc1ccccc1Oc1cc(-c2ccc(C(F)(F)F)cc2)ncn1
168 to 170 °C	CC(C)(C)C(NC(=O)C(=O)Nc1cccnc1)NC(=O)c1ccc(Cl)cc1 (stereo unspecified)
> 260 °C	O=C(Nc1nccs1)c1nc(-c2ccc(N3CCOCC3)cc2)[nH]c1-c1ccc(Cl)cc1
52 °C	COC(=O)c1ccc(C(F)(F)F)cc1C#N
190 to 192 °C	CCOC(=O)NNc1ccc(-c2ccc(Cl)cc2)nn1
182 to 184 °C	COC1=CC(=O)c2c(c(CO)cn2C)C1=O
209 to 210 °C	NC1=CC(=O)CC(c2cccc(Cl)c2Cl)C1 (stereo unspecified)
> 250 °C	O=[N+]([O-])c1ccc2c(c1)Sc1cc(I)ccc1N2
102 to 105 °C	CCN(CC)C(=O)COc1cccc(-n2nc(-c3ccc(F)cc3)c3cccnc32)c1
278 to 284 °C	COc1cccc2c1CN(c1c(F)cc3c(=O)c(C(=O)O)cn(-c4ccc(F)cc4)c3c1F)C2
158 °C	N#Cc1cc(F)c(NN)cc1F
114 to 115 °C	COc1nc2ccccc2cc1N(C(=O)N1CCN(c2cc(C)cc(C)c2)CC1)C(C)C
162 to 165 °C	Cn1nc2ccccc2c1C(=O)NC1CCN(CCCc2ccc(F)cc2)CC1
258 °C	Oc1noc2ncccc12
128 to 129 °C	O=C(C=Cc1cncc(F)c1)NCCCCN1CCN(C(c2ccccc2)c2ccccc2)CC1
85 to 110 °C	Cn1nc(-c2ccccc2)c(Oc2ccc([N+](=O)[O-])cc2)c1-c1ccccc1
141 to 142 °C	CCCCCCCCCCCC#Cc1ccccc1C=C(P(=O)(O)O)P(=O)(O)O
100 to 102 °C	CN(C)c1c(C#N)c(N)nn1C

SMILES	melting point
O=C(OC1c2ccccc2C(=O)N1c1ccc2ccc(Cl)nc2n1)N1CCN(C(=O)C2CCCCC2)CC1 (stereo unspecified)	240 °C
Cc1ccc(Cn2cc(C(=O)C(=O)O)c3cc(-c4ccc(OC(F)(F)F)cc4)ccc32)cc1	192 to 193 °C
CN1CC=C(c2ccnc(C(=O)N(O)Cc3ccccc3)c2)CC1	135 to 155 °C
COc1cc(C2c3cc4c(cc3C(NC3=CC(=O)N(C)C3=O)C3COC(=O)C23)OCO4)cc(OC)c1O (stereo unspecified)	238 to 241 °C
COC(=O)C1CN1C(c1ccccc1)(c1ccccc1)c1ccccc1 (stereo unspecified)	127 to 128 °C

— a melting point compilation (Tetko et al.; mined from patent text by program, amines drawn as free bases though some values may be those of a salt)
